Data on two compounds can be found in paper PMC8213057, “Targeting ALK2: An Open Science Approach to Developing Therapeutics for the Treatment of Diffuse Intrinsic Pontine Glioma” (Journal of Medicinal Chemistry, 2020).

Where “and” joins values, the source holds several entries; their conditions need not be identical. Identical values can stand only once.

The target of one test is T1, Aurora A (Homo sapiens, UniProt O14965).
T1 sequence (O14965 1-403): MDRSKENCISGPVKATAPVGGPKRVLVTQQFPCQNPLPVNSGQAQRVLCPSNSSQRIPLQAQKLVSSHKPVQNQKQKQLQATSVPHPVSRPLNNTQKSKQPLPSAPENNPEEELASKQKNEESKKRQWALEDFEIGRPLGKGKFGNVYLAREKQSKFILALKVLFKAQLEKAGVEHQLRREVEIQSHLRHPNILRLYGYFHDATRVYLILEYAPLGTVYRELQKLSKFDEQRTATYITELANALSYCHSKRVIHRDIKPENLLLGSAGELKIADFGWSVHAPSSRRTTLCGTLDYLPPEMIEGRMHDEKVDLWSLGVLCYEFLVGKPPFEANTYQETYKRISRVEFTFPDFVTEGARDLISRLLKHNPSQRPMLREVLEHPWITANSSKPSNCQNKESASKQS
To be noted: 1 μM; Run 1, Run 2.

Another test concerns the target BTK (Homo sapiens, UniProt Q06187). In words: biochemical. To be noted: read-out: % enzyme activity, 1 μM; Run 1, Run 2.
The next test concerns the target T2, LATS1 (Homo sapiens, UniProt O95835).
T2 sequence (O95835 1-1130): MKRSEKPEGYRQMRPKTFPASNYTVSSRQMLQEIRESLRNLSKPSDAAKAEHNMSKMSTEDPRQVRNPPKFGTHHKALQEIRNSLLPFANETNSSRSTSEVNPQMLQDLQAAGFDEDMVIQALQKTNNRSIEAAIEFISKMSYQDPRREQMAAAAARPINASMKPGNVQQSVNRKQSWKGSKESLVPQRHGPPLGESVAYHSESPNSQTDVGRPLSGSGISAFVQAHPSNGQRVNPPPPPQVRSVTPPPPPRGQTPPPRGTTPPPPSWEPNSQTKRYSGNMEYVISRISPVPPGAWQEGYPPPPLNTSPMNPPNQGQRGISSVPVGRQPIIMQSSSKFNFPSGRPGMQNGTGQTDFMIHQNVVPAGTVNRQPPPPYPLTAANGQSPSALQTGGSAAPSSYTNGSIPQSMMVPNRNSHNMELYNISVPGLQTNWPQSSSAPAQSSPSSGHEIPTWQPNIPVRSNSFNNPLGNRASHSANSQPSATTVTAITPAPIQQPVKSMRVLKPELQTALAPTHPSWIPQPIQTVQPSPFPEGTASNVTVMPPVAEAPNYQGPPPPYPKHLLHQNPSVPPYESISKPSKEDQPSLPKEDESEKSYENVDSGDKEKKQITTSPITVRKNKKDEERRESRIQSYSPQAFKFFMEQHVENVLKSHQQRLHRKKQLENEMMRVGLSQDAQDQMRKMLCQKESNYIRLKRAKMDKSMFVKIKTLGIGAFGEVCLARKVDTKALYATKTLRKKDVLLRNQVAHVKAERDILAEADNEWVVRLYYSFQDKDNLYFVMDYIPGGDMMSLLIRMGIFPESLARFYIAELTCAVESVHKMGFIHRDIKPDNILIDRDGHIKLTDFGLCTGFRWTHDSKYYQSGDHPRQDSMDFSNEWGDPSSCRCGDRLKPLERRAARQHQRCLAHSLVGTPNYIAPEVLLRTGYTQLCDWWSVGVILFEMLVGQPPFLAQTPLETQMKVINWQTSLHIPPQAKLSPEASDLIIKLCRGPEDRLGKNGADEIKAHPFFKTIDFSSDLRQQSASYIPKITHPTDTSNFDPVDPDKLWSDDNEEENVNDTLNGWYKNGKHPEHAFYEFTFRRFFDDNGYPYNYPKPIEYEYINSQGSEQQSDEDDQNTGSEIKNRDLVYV
To be noted: 1 μM; Run 1, Run 2.

A further test deals with RON/MST1R (Homo sapiens, UniProt Q04912). In words: biochemical. To be noted: read-out: % enzyme activity, 1 μM; Run 1, Run 2.
Sequence of RON/MST1R (Q04912 25-1400): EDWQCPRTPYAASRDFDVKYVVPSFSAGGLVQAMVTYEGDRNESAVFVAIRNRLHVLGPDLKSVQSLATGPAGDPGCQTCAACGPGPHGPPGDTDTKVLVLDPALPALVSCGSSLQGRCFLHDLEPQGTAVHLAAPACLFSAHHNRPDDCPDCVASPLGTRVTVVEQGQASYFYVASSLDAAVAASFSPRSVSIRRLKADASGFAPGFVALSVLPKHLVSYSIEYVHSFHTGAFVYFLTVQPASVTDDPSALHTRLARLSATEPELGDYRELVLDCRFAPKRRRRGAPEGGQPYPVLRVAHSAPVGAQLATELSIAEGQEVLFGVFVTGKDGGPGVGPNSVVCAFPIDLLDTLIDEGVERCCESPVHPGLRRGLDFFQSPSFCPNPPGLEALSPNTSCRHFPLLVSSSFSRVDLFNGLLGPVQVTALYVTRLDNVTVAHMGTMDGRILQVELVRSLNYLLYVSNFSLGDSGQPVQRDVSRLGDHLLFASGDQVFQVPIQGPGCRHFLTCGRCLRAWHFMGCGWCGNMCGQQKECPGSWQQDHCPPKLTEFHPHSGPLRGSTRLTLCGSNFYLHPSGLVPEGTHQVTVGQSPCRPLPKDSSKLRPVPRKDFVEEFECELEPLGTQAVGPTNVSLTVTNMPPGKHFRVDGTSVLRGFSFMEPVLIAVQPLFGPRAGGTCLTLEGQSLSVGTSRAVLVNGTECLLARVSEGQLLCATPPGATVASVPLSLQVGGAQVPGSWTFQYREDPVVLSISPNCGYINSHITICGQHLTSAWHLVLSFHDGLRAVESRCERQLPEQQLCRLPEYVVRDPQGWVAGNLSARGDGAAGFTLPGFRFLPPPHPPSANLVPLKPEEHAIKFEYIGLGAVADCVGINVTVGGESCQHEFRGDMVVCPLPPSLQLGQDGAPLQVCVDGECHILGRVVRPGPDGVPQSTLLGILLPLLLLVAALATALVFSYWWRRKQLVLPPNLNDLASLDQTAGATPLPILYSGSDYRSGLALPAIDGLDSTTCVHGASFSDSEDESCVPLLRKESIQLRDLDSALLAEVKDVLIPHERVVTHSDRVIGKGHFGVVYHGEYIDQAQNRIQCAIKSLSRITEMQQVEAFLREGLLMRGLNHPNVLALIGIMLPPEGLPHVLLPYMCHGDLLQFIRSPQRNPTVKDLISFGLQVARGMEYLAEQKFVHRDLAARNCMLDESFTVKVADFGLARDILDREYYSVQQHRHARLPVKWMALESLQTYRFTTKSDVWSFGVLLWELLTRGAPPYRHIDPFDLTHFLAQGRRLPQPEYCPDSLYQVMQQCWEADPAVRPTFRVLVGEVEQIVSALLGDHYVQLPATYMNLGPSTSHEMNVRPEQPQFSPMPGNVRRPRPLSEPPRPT
For a further test, the target named is DMPK2 (Homo sapiens, UniProt Q6DT37). To be noted: 1 μM; Run 1, Run 2.
Sequence of DMPK2 (Q6DT37 whole entry): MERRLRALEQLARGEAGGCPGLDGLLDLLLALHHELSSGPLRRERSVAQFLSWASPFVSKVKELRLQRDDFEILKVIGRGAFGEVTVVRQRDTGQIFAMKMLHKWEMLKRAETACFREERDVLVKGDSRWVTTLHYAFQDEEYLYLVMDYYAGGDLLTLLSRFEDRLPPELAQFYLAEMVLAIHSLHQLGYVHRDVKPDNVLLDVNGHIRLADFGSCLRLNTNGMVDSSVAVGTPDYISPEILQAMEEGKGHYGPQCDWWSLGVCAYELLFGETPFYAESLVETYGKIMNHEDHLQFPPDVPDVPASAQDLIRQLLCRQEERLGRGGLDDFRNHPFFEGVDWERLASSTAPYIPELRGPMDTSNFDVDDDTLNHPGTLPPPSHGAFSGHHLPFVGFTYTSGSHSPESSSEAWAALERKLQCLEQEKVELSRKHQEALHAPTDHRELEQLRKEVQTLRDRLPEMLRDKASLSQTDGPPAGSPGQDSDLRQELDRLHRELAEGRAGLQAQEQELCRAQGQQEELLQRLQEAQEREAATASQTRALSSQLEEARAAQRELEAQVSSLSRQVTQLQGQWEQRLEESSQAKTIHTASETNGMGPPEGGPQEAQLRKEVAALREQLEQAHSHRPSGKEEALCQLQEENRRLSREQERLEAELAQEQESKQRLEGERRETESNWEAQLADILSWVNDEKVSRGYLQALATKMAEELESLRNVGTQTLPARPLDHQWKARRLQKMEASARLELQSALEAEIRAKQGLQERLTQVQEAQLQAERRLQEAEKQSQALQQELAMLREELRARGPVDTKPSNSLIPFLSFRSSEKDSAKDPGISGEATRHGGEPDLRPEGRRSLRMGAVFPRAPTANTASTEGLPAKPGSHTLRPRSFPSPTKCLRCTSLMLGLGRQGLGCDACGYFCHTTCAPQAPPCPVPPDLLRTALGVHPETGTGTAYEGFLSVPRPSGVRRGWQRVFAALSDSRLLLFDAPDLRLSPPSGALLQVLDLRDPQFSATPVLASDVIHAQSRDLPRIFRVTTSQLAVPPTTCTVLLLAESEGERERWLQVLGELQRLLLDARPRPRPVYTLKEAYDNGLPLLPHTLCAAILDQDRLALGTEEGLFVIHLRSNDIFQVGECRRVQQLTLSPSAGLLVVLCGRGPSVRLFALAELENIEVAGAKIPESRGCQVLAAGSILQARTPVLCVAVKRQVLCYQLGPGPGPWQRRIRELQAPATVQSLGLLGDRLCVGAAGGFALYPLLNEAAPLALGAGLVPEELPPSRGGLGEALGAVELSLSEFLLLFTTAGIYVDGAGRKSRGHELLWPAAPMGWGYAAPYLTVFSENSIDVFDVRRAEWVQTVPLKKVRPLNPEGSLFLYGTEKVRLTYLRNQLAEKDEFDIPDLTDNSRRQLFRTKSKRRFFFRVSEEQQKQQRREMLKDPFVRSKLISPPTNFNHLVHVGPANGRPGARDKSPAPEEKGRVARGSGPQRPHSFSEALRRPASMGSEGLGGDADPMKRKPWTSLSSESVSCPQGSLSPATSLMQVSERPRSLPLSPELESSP
The target in another test is PKN3/PRK3 (Homo sapiens, UniProt Q6P5Z2). To be noted: 1 μM; Run 1, Run 2.
Another test addresses TRKA (Homo sapiens, UniProt P04629). To be noted: 1 μM; Run 1, Run 2.
Another test has as its target T3, GRK3 (Homo sapiens, UniProt P35626).
T3 sequence (P35626 1-688): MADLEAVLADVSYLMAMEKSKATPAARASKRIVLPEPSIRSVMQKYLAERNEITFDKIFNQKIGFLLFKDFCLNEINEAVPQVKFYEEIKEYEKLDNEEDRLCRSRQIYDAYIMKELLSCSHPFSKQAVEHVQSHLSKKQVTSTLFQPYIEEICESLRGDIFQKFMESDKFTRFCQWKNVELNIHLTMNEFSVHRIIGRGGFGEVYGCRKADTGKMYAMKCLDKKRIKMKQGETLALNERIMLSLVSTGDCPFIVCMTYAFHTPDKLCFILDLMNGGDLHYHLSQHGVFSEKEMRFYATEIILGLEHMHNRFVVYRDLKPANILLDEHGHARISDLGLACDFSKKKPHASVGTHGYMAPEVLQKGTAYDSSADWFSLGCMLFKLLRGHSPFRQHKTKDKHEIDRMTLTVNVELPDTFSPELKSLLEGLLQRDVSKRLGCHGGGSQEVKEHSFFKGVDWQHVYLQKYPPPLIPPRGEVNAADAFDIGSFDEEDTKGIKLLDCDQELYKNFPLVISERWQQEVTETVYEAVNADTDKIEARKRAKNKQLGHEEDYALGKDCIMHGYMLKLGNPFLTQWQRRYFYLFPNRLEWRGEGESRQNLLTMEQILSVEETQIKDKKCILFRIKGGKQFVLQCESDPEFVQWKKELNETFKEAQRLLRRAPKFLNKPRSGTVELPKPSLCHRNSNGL
The experiment in a line: biochemical. To be noted: read-out: % enzyme activity, 1 μM; Run 1, Run 2.

Sequence of TRKA (P04629 33-796): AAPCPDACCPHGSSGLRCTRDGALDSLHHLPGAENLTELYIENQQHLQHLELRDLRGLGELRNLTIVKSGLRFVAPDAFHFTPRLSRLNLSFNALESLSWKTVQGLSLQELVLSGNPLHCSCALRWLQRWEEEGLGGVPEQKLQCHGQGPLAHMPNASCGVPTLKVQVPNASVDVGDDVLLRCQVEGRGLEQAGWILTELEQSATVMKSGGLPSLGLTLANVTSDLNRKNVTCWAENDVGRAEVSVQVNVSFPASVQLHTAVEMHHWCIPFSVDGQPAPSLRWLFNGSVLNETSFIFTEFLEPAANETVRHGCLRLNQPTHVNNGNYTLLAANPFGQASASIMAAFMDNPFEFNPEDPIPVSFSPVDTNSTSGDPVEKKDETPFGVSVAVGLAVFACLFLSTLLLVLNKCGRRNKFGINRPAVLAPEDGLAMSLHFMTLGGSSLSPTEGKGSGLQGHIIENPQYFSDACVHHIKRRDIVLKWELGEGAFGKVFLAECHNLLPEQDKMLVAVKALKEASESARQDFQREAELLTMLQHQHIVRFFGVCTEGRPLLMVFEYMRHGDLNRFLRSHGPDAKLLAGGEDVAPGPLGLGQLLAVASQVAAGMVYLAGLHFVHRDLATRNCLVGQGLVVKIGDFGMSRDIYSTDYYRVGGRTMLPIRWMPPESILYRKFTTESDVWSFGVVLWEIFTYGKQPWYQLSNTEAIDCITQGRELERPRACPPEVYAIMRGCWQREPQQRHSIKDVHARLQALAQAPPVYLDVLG
Sequence of BTK (Q06187 whole entry): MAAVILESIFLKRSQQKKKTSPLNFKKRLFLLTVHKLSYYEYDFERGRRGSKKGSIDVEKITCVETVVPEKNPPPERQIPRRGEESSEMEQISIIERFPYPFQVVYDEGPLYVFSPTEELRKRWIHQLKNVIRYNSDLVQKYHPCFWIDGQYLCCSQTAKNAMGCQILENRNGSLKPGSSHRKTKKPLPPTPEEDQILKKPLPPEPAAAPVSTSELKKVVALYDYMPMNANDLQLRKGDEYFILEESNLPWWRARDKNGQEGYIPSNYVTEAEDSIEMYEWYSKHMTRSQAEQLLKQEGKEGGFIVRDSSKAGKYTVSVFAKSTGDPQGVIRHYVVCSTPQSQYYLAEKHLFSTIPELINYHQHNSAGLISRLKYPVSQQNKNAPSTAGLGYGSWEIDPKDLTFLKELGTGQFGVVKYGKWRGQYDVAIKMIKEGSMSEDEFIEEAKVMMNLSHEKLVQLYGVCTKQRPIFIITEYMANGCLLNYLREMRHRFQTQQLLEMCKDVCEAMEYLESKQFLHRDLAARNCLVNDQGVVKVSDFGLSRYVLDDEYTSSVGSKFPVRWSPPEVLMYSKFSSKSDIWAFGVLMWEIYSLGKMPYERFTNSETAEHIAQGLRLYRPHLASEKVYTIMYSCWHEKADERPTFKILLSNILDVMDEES

In the case of `COc1cc(-c2cncc(-c3ccc(N4C[C@@H](C)N(C)[C@@H](C)C4)cc3)c2C)cc(F)c1C(N)=O` [Compound 26c, 2-Fluoro-6-methoxy-4-(4-methyl-5-(4-((3R,5S)-3,4,5-trimethylpiperazin-1-yl)phenyl)pyridin-3-yl)benzamide], the “% enzyme activity” value is listed as 101.37% on Aurora A; 100.53% at LATS1; 86.97% on DMPK2; 96.44% at PKN3/PRK3; 94.00% on TRKA. Also, the remaining activity at 1 µM on BTK turned out to be 96.5%; on RON/MST1R, 105%; on GRK3, 96.1%. The % enzyme activity at 1 μM in the test on BRAF is 41.1% and 40.5%.
On to `COc1cc(-c2cncc(-c3ccc(N4CCN(C)CC4)cc3)c2C)cc(F)c1C(N)=O` [Compound 26a, 2-Fluoro-6-methoxy-4-(4-methyl-5-(4-(4-methylpiperazin-1-yl)phenyl)pyridin-3-yl)benzamide], for which the “% enzyme activity” value on Aurora A was 97.24%; at LATS1, 97.31%; on DMPK2 it was 82.52%; on PKN3/PRK3, 93.55%; on TRKA, 90.11%. Besides, the values for the remaining activity at 1 µM at BTK, on RON/MST1R and at GRK3 were 95.3%, 98.7% and 94.4%, respectively. Besides, the % enzyme activity at 1 μM in the test on BRAF stood at 28.8%.
